# In ChEMBL document CHEMBL3879901, “Substituted isoquinolin-1(2H)-ones, and methods of use thereof” (2012):
# Active and inactive are the calls of the source. The calls are words filed in the database; no cut-off is given here.
# Experiments:
# Mus musculus = species on record: Mus musculus; assay: Inhibition of TNP-Ficoll or TNP-KHL-stimulated IgE response in mouse in presence of mTOR inhibitor rapamycin by ELISA; assay type: functional
# Rattus norvegicus [1] = assay: Antiarthritic activity in type 2 collagen-induced po dosed Lewis rat arthritis model assessed as reduction in bone resorption in knee administered every 12 hrs for 16 days measured on day 17 of post last dose by toluidine blue staining-based assay; assay type: functional, organism-based
# [2] = target: T1, Phosphatidylinositol 4,5-bisphosphate 3-kinase catalytic subunit delta isoform (Mus musculus) (UniProt O35904); assay: Inhibition of PI3Kdelta in LPS or anti-CD40/IL4-stimulated mouse B cells assessed as decrease in IgG response in presence of mTOR inhibitor rapamycin relative to vehicle-treated control; assay type: cell-based
# T1 sequence (whole entry): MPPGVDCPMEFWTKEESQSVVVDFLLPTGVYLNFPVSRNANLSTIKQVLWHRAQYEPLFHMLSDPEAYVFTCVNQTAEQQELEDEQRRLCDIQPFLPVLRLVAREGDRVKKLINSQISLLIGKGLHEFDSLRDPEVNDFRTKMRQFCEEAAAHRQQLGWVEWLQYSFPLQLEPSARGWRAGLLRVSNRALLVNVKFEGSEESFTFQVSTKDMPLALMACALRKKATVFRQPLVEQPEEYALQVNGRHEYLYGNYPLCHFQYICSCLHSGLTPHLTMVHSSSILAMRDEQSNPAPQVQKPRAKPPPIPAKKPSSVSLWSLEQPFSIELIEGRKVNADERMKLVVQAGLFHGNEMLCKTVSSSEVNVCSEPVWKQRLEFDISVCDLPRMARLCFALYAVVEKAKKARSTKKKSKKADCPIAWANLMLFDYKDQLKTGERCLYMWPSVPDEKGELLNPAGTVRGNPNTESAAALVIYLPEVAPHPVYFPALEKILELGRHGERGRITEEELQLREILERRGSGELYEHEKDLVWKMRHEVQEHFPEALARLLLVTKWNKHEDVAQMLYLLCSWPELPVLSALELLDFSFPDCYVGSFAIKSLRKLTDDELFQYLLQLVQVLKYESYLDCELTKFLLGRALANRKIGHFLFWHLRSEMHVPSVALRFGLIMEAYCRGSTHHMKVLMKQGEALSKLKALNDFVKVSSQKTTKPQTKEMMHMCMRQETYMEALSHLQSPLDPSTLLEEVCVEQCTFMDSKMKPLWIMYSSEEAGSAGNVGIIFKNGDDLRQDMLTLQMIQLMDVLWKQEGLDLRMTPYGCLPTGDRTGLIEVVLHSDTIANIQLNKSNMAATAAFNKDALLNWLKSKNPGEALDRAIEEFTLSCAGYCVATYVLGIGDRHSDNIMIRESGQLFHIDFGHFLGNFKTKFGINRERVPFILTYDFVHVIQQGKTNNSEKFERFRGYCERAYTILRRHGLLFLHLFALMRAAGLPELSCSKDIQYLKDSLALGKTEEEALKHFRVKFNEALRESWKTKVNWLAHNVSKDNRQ
# [3] = target: PI3-kinase p110-alpha/p85-alpha (Homo sapiens, UniProt P42336); assay: Inhibition of N-terminal His6-tagged recombinant full-length human p110alpha/untagged recombinant full length human p85alpha expressed in baculovirus infected Sf21 cells using phosphatidylinositol as substrate in presence of gamma-32P-ATP after 5 mins by thin layer chromatographic method
# Homo sapiens = species on record: Homo sapiens; assay: Inhibition of allergen-induced activation of basophilic granulocytes in human whole blood preincubated for 20 mins followed by allergen induction measured after 20 mins using sub micromolar range of compound by basotest assay; assay type: functional, tissue-based
# Rattus norvegicus [4] = assay: Antiarthritic activity in complete freund's adjuvant-induced intrathecally dosed Lewis rat arthritis model assessed as reduction in paw volume administered on day 8 to 20 post arthritis induction measured every second day of compound dosing by water displacement plethysmometry; assay type: functional, organism-based
# [5] = Toxicity in complete freund's adjuvant-induced intrathecally dosed Lewis rat arthritis model assessed as body weight loss at 10 to 60 mg/kg, administered intrathecally on day 8 to 20 post arthritis induction measured every second day of compound dosing; assay type: organism-based; settings: in vivo, icv_or_intrathecal
# Rattus norvegicus [6] = assay: Antiarthritic activity in type 2 collagen-induced Lewis rat arthritis model assessed as reduction in serum anti-type 2 collagen levels at 30 mg/kg, po administered every 12 hrs for 16 days measured on day 17 of post last dose by ELISA relative to control; assay type: functional; parameters: scale not given: the % may be the effect or the level left
# Rattus norvegicus [7] = assay: Antiarthritic activity in type 2 collagen-induced Lewis rat arthritis model assessed as reduction in ankle diameter at 10 to 60 mg/kg, po qd administered for 6 days measured every day of compound dosing and day 7 of post last dose; assay type: functional, organism-based
# PI3-kinase p110-alpha/p85-alpha, sequence (P27986 whole entry): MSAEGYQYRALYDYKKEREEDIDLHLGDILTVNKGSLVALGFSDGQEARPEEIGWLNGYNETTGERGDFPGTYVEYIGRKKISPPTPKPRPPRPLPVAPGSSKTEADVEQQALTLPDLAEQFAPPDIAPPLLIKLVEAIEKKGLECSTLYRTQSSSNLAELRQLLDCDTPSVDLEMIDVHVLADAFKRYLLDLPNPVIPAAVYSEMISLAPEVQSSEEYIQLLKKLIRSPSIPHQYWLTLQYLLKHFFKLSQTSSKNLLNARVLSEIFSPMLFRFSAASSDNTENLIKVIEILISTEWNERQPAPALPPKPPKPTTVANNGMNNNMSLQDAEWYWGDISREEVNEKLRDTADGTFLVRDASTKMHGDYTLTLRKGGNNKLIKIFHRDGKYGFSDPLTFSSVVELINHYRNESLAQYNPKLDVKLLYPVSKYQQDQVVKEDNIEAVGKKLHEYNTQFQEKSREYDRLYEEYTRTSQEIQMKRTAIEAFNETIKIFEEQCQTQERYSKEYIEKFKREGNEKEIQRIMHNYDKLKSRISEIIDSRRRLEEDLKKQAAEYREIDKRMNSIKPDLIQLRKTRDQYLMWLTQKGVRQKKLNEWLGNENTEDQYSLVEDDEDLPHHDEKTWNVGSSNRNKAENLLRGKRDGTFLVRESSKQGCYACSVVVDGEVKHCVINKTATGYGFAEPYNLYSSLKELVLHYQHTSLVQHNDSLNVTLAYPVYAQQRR
# PI3-kinase p110-alpha/p85-alpha, sequence (P42336 whole entry): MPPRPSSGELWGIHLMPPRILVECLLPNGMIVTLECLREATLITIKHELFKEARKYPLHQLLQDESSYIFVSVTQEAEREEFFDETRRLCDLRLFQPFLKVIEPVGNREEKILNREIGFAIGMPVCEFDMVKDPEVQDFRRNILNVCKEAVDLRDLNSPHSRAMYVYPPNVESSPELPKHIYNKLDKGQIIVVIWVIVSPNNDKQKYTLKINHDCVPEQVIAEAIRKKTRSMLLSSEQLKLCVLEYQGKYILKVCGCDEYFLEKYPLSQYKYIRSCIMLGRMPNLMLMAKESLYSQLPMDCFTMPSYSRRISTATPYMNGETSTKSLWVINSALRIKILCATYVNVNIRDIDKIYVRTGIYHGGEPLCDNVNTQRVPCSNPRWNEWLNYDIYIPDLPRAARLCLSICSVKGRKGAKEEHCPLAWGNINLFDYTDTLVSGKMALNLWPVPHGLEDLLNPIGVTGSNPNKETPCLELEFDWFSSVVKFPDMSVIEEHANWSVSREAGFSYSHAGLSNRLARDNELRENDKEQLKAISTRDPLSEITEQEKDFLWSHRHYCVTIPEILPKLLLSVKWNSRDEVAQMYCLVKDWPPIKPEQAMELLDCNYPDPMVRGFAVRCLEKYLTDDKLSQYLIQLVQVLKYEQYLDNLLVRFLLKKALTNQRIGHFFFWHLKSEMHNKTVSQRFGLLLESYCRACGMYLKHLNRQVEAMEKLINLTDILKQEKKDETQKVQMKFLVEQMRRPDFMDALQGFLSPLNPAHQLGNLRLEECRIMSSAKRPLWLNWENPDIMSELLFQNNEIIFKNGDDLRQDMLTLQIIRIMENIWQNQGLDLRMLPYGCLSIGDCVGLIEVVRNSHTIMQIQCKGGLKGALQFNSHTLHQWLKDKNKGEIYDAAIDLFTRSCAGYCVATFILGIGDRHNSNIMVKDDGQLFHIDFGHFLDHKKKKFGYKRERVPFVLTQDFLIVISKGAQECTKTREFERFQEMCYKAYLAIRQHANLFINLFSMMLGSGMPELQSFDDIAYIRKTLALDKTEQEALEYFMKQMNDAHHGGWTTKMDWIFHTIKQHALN
compound,measurement,setting,value
CC(=O)Nc1nc2ccc(-c3nn(Cc4cc5cccc(C)c5c(=O)n4-c4ccccc4C)c4ncnc(N)c34)cc2s1,inhibition,Mus musculus,Active
same,Activity,Rattus norvegicus [1],Dose-dependent effect
same,inhibition,[2],Active
same,IC50,[3],1 to 10 µM
same,inhibition,Homo sapiens,Active
same,Activity,Rattus norvegicus [4],Dose-dependent effect
same,Activity,[5],Toxic
same,Activity,Rattus norvegicus [6],87%
same,Activity,Rattus norvegicus [7],Active
